Experimental data from PubChem BioAssay AID248 (DTP/NCI, 2004).
Where “and” joins values, the source holds several entries; their conditions need not be identical. Identical values can stand only once. Toxic doses and inconclusive results are not listed. Cut-off read from the data, not from the text of the source: active = T/C of 150% or more; inactive = T/C below 125%. Square brackets hold non-standard residues; d marks the D form. Peptide text beside a SMILES is read from it. * marks the point of attachment. ξ: configuration not given here. ξH = NC(Cc1c[nH]cn1)C(=O)O; Cbz = O=C(OCc1ccccc1)*

Tested on: L1210 leukemia ip in BDF1 mice, survival T/C
Assay: NCI In Vivo Anticancer Drug Screen. Data for tumor model L1210 Leukemia (intraperitoneal) in B6D2F1 (BDF1) mice
Details: endpoint: mean survival time, higher = longer survival
How it was run: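 Value reflects the ratio of survival in compound-treated mice to survival in vehicle-treated controls, with both groups carrying the same transplanted tumor.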

[1] = dose: 100.0 mg/kg/injection, schedule: Q04DX003 (ip), vehicle: saline
[2] = dose: 200.0 mg/kg/injection, schedule: Q04DX003 (ip), vehicle: saline
[3] = dose: 400.0 mg/kg/injection, schedule: Q04DX003 (ip), vehicle: saline
[4] = dose: 100.0 mg/kg/injection, schedule: Q01DX001 (ip), vehicle: carboxymethylcellulose (CMC)
[5] = dose: 200.0 mg/kg/injection, schedule: Q01DX001 (ip), vehicle: carboxymethylcellulose (CMC)
[6] = dose: 400.0 mg/kg/injection, schedule: Q01DX001 (ip), vehicle: carboxymethylcellulose (CMC)
[7] = dose: 100.0 mg/kg/injection, schedule: Q04DX003 (ip), vehicle: saline with Tween-80
[8] = dose: 200.0 mg/kg/injection, schedule: Q04DX003 (ip), vehicle: saline with Tween-80
[9] = dose: 400.0 mg/kg/injection, schedule: Q04DX003 (ip), vehicle: saline with Tween-80
[10] = dose: 100.0 mg/kg/injection, schedule: Q04DX003 (ip), vehicle: Klucel (hydroxypropylcellulose) (HPC)
[11] = dose: 200.0 mg/kg/injection, schedule: Q04DX003 (ip), vehicle: Klucel (hydroxypropylcellulose) (HPC)
[12] = dose: 400.0 mg/kg/injection, schedule: Q04DX003 (ip), vehicle: Klucel (hydroxypropylcellulose) (HPC)
[13] = dose: 100.0 mg/kg/injection, schedule: Q01DX001 (ip), vehicle: saline
[14] = dose: 200.0 mg/kg/injection, schedule: Q01DX001 (ip), vehicle: saline
[15] = dose: 400.0 mg/kg/injection, schedule: Q01DX001 (ip), vehicle: saline
[16] = dose: 100.0 mg/kg/injection, schedule: Q01DX009 (ip), vehicle: Klucel (hydroxypropylcellulose) (HPC)
[17] = dose: 200.0 mg/kg/injection, schedule: Q01DX009 (ip), vehicle: Klucel (hydroxypropylcellulose) (HPC)
[18] = dose: 400.0 mg/kg/injection, schedule: Q01DX009 (ip), vehicle: Klucel (hydroxypropylcellulose) (HPC)
[19] = dose: 50.0 mg/kg/injection, schedule: Q01DX001 (ip), vehicle: carboxymethylcellulose (CMC)

Measured: T/C

CCCCCCCCCC(=O)OCCN1CCN(CCCN2c3ccccc3Sc3ccc(C(F)(F)F)cc32)CC1
inactive: dose: 1.56 mg/kg/injection, schedule: Q01DX009 (ip), vehicle: alcohol 107 % of control | dose: 25.0 mg/kg/injection, schedule: Q04DX003 (ip), vehicle: saline with Tween-80 106 % of control

CCCCCCSc1ccccn1
inactive: [1] 101 % of control | [2] 107 % of control | [3] 96 % of control

CC(=O)Nc1ccc2c(c1)-c1ccc(F)cc1C2=O
inactive: [4] 96 % of control | [5] 103 % of control | [6] 89 % of control

CCCN(CCC)P(c1ccccc1)N(CCC)CCC
inactive: dose: 100.0 mg/kg/injection, schedule: Q04DX002 (ip), vehicle: saline with Tween-80 93 % of control | dose: 200.0 mg/kg/injection, schedule: Q04DX002 (ip), vehicle: saline with Tween-80 101 % of control

O=C(O)c1ccccc1-c1ccccc1C(=O)Nc1ccc2c(c1)Cc1cc(F)ccc1-2
inactive: dose: 75.0 mg/kg/injection, schedule: Q01DX001 (ip), vehicle: carboxymethylcellulose (CMC) 91 % of control | dose: 150.0 mg/kg/injection, schedule: Q01DX001 (ip), vehicle: carboxymethylcellulose (CMC) 98 % of control

O=C(O)CC1C=CCC1 (centres undefined)
inactive: dose: 25.0 mg/kg/injection, schedule: Q04DX003 (ip), vehicle: saline 90 % of control

O=C(Nc1ccc(Cl)cc1C(=O)c1ccccc1)c1ccc(Cl)cc1
inactive: dose: 100.0 mg/kg/injection, schedule: Q04DX002 (ip), vehicle: Klucel (hydroxypropylcellulose) (HPC) 92 % of control | dose: 200.0 mg/kg/injection, schedule: Q04DX002 (ip), vehicle: Klucel (hydroxypropylcellulose) (HPC) 89 % of control | dose: 400.0 mg/kg/injection, schedule: Q04DX002 (ip), vehicle: Klucel (hydroxypropylcellulose) (HPC) 95 % of control

OC1CCCCCC2CC12 (centres undefined)
inactive: dose: 25.0 mg/kg/injection, schedule: Q01DX005 (ip), vehicle: saline with Tween-80 86 % of control | dose: 25.0 mg/kg/injection, schedule: Q01DX009 (ip), vehicle: saline with Tween-80 98 % of control | dose: 50.0 mg/kg/injection, schedule: Q01DX005 (ip), vehicle: saline with Tween-80 101 % of control | dose: 50.0 mg/kg/injection, schedule: Q01DX009 (ip), vehicle: saline with Tween-80 91 % of control | dose: 100.0 mg/kg/injection, schedule: Q01DX005 (ip), vehicle: saline with Tween-80 89 % of control and 90 % of control | dose: 100.0 mg/kg/injection, schedule: Q01DX009 (ip), vehicle: saline with Tween-80 91 % of control

O=C1CC(=O)N(c2ccccc2)O1
inactive: [7] 92 % of control | [8] 112 % of control | [9] 91 % of control

Cc1cc(NC(=O)/C=C/c2ccc([N+](=O)[O-])cc2Cl)ccc1S(=O)(=O)F
inactive: dose: 100.0 mg/kg/injection, schedule: Q01DX001 (ip), vehicle: saline with Tween-80 92 % of control | dose: 200.0 mg/kg/injection, schedule: Q01DX001 (ip), vehicle: saline with Tween-80 93 % of control | dose: 400.0 mg/kg/injection, schedule: Q01DX001 (ip), vehicle: saline with Tween-80 92 % of control

O=[N+]([O-])C1CC=CCC1c1ccc(C2CC=CCC2[N+](=O)[O-])cc1 (centres undefined)
inactive: [4] 96 % of control | [5] 94 % of control | [6] 92 % of control

Clc1ccc(COCc2ccccc2COCc2ccc(Cl)cc2Cl)c(Cl)c1
inactive: [10] 93 % of control | [11] 96 % of control | [12] 88 % of control

O=S(=O)(O)SCCCNCCCNCCCSS(=O)(=O)O
inactive: dose: 9.37 mg/kg/injection, schedule: Q01DX009 (ip), vehicle: saline 88 % of control | dose: 18.75 mg/kg/injection, schedule: Q01DX009 (ip), vehicle: saline 87 % of control | dose: 37.5 mg/kg/injection, schedule: Q01DX009 (ip), vehicle: saline 93 % of control | dose: 37.5 mg/kg/injection, schedule: Q04DX003 (ip), vehicle: saline 98 % of control | dose: 75.0 mg/kg/injection, schedule: Q01DX001 (ip), vehicle: saline 102 % of control | dose: 75.0 mg/kg/injection, schedule: Q04DX003 (ip), vehicle: saline 93 % of control | dose: 150.0 mg/kg/injection, schedule: Q01DX001 (ip), vehicle: saline 96 % of control

CCOC(C)(C)C
inactive: [13] 97 % of control | [14] 103 % of control | [15] 106 % of control

Cc1ccc(S(=O)(=O)OCCN(CCOS(=O)(=O)c2ccc(C)cc2)S(=O)(=O)c2ccc(C)cc2)cc1
inactive: [16] 94 % of control | [10] 94 % of control | [17] 89 % of control | [11] 91 % of control | [18] 96 % of control | [12] 91 % of control

COCCN=C(NCCOC)c1ccc(Nc2ncnc3nc[nH]c23)cc1
inactive: dose: 50.0 mg/kg/injection, schedule: Q04DX003 (ip), vehicle: saline 102 % of control | [1] 95 % of control

O=C(CCC(=O)c1ccc(Br)cc1)c1ccc(Br)cc1
inactive: [19] 92 % of control | [4] 97 % of control | [5] 103 % of control | [6] 90 % of control

CCCCOC(=O)c1ccc(NC(=O)Nc2ccc(F)c([N+](=O)[O-])c2)cc1
inactive: [16] 98 % of control | [17] 95 % of control | [18] 101 % of control

Br[CH2][Sn]([Br])([Br])[CH2]Br
inactive: dose: 6.25 mg/kg/injection, schedule: Q04DX002 (ip), vehicle: saline with Tween-80 101 % of control | dose: 12.5 mg/kg/injection, schedule: Q04DX002 (ip), vehicle: saline with Tween-80 101 % of control | dose: 25.0 mg/kg/injection, schedule: Q04DX002 (ip), vehicle: saline with Tween-80 116 % of control

O=NN(Cc1ccccc1)NC(=O)c1ccccc1
inactive: dose: 100.0 mg/kg/injection, schedule: Q04DX002 (ip), vehicle: gum acacia 96 % of control | dose: 200.0 mg/kg/injection, schedule: Q04DX002 (ip), vehicle: gum acacia 104 % of control

O=[N+]([O-])c1cncn1CCN1CCOCC1
inactive: [4] 88 % of control | [5] 88 % of control | [6] 94 % of control

O=c1[nH]c2c(c(=O)[nH]1)OCN(Cc1ccccc1)C2
inactive: [19] 98 % of control | [4] 105 % of control | [5] 100 % of control | [6] 100 % of control

CN(C)C(=O)C1C2CC3OC(=O)C1C3C2 (centres undefined)
inactive: [1] 100 % of control and 104 % of control | [2] 94 % of control and 108 % of control | [3] 100 % of control and 104 % of control

CC(=O)CC(=O)c1cc(C(C)=O)c(O)c(C(C)=O)c1
inactive: dose: 50.0 mg/kg/injection, schedule: Q04DX003 (ip), vehicle: Klucel (hydroxypropylcellulose) (HPC) 101 % of control | [10] 108 % of control | [11] 103 % of control | [12] 101 % of control

O=C(CNC(=O)OCc1ccccc1)NC(Cc1cnc[nH]1)C(=O)O (stereo not drawn) (Cbz-Gly-[ξH]-OH)
inactive: [13] 96 % of control | [14] 104 % of control | [15] 107 % of control

O=C(NCCCl)NC1CCSc2ccccc21 (centres undefined)
inactive: [7] 101 % of control | [8] 95 % of control

CCCCCCOC(=O)C(N)Cc1ccc(N(CCCl)CCCl)cc1 (centres undefined)
inactive: dose: 2.8 mg/kg/injection, schedule: Q01DX009 (ip), vehicle: other 110 % of control | dose: 5.6 mg/kg/injection, schedule: Q01DX001 (ip), vehicle: other 110 % of control | dose: 5.6 mg/kg/injection, schedule: Q01DX009 (ip), vehicle: other 106 % of control | dose: 11.25 mg/kg/injection, schedule: Q01DX001 (ip), vehicle: other 110 % of control | dose: 11.25 mg/kg/injection, schedule: Q01DX009 (ip), vehicle: other 116 % of control | dose: 22.5 mg/kg/injection, schedule: Q01DX001 (ip), vehicle: other 121 % of control

COc1ccc(C2NC(=O)NC2=O)cc1 (centres undefined)
inactive: dose: 50.0 mg/kg/injection, schedule: Q01DX001 (ip), vehicle: saline 105 % of control | [13] 105 % of control | [7] 108 % of control | [14] 102 % of control | [8] 103 % of control | [15] 111 % of control | [9] 92 % of control

O=Cc1ccc(OCCBr)cc1
inactive: [7] 98 % of control | [8] 97 % of control | [9] 103 % of control
